Data set [1] relates to primary human mesenchymal stem cells (hMSCs). The data set can be described thus: Chondrogenesis induction in hMSCs (Rhodamine B staining intensity, EC50). Type of data set: cell-based. The settings on record: 6 days, Rhodamine B staining intensity of nodules. From the text:
(§1) Representative compounds were screened using primary human mesenchymal stem cells (hMSCs) to determine their ability to induce chondrogenesis (process by which cartilage is developed).
Primary human mesenchymal stem cells (hMSCs) were purchased from Lonza (Walkersville, Md.) and expanded in Mesenchymal Stem Cell Growth Media (Lonza). Cells between passage 2 and 4 were used for the experiments.
To image chondrogenic nodules, the cells were fixed using 4% formaldehyde (Electron Microscopy Sciences), and stained with 2 μg/mL Rhodamine B (Sigma-Aldrich) and 20 μM Nile Red (Sigma-Aldrich) [Johnson K., et. al, A Stem Cell-Based Approach to Cartilage Repair, Science, (2012), 336(6082). […] Rhodamine B staining intensity of nodules in each well was normalized to the average of 3 DMSO treated wells on the same plate using Excel (Microsoft Inc.). The normalized averages (fold change over DMSO) of 3 replicate wells for each compound concentration were calculated. EC50 values were calculated using non-linear regression curve fitting in Prism 8 (Graphpad Inc.). Due to solubility limitations of some of the compounds, curve fitting was incomplete, and the highest observed activity was extrapolated to the insoluble doses for accurate EC50 determinations.
EC50 values are reported. Further, using TGF-β3 as a positive control, the concentration of representative compounds required to induce equivalent levels of chondrogenesis is reported. In addition, the maximum activity of each compound and the respective dose that each compound reached maximum chondrogenesis activity is reported.

For data set [2] the following is noted: from NCc1cncc(-c2ccc3[nH]nc(C(=O)Nc4cncc(-c5cccc(CCC(=O)O)c5)c4)c3c2)c1; amide bond; 20-membered ring; HATU/DIEA/DMAP; DMF; 20.0 mM; 37.0 °C.
Data set [3] deals with recombinant DYRK1A kinase (Homo sapiens (Human), UniProt Q13627). The data set can be described thus: DYRK1A kinase assay (Ser/Thr 18 peptide Z-lyte, FRET). The settings on record: 30 μM ATP, one hour at room temperature, read-out: EC50 (μM) (IC50 per method). The class given is biochemical. An excerpt: Representative compounds were screened using the assay procedure for DYRK1A kinase activity as described below.
The DYRK1A kinase assay was run using the Ser/Thr 18 peptide Z-lyte assay kit according to manufacturer's instructions (Life Technologies—a Division of Thermo-Fisher). This is a non-radioactive assay using fluorescence resonance energy transfer (FRET) between coumarin and fluorescein to detect kinase activity which is represented as a ratio of coumarin emission/fluorescein emission.
Briefly, recombinant DYRK1A kinase, ATP and Ser/Thr peptide 18 were prepared in 1× Kinase buffer to final concentrations of 0.19 μg/mL, 30 μM, and 4 μM respectively. The mixture was allowed to incubate with the representative compounds for one hour at room temperature. All reactions were performed in duplicate. Unphosphorylated (“0% Control”) and phosphorylated (“100% control”) forms of Ser/Thr 18 served as control reactions. Additionally, an 11-point dose-response curve of Staurosporine (1 uM top) was run to serve as a positive compound control.
After incubation, Development Reagent A was diluted in Development Buffer then added to the reaction and allowed to further incubate for one hour at room temperature. The plate was read at Ex 400 Em 455 to detect the coumarin signal and Ex 400 Em 520 to measure the signal (EnVision Multilabel Plate Reader, PerkinElmer).
The Emission ratio (Em) was calculated as a ratio of the coumarin (C) emission signal (at 445 nm)/Fluorescein (F) emission signal (at 520 nm). The percent phosphorylation was then calculated using the following formula: [1−((Em ratio×F100%)−C100%)/((C0%−C100%)+(Em ratio×(F100%−F0%)))].

Data set [4] has as its system Wnt activity (Sp5-Luc reporter, SW480 colon carcinoma cells). Briefly: Sp5-Luc reporter gene screening assay for Wnt activity in SW480 cells. Type of data set: cell-based. The settings on record: Homo sapiens; for EC50: Sp5-Luc reporter, SW480 cells, 36 to 48 hours. An excerpt:
The screening assay for Wnt activity is described as follows. Reporter cell lines can be generated by stably transducing cancer cell lines (e.g., colon cancer) or primary cells (e.g., IEC-6 intestinal cells) with a lentiviral construct that includes a Wnt-responsive promoter driving expression of the firefly luciferase gene.
SW480 colon carcinoma cells were transduced with a lentiviral vector expressing luciferase with a human Sp5 promoter consisting of a sequence of eight TCF/LEF binding sites. SW480 cells stably expressing the Sp5-Luc reporter gene and a hygromycin resistance gene were selected by treatment with 150 μg/mL of hygromycin for 7 days. These stably transduced SW480 cells were expanded in cell culture and used for all further screening activities. […] For Sp5-Luc reporter gene assays, the cells were plated at 4,000 cells/well in 384-well plates with a DMEM medium containing 1% fetal bovine serum, and 1% Penicillin-Streptomycin and incubated for 36 to 48 hours at 37° C. and 5% CO2. Following incubation, 15 μl of BriteLite Plus luminescence reagent (Perkin Elmer) was added to each well of the 384-well assay plates. The plates were placed on an orbital shaker for 2 min and then luminescence was quantified using the Envision (Perkin Elmer) plate reader. Readings were normalized to DMSO only treated cells, and normalized activities were utilized for EC50 calculations using the dose-response log (inhibitor) vs. response-variable slope (four parameters) nonlinear regression feature available in GraphPad Prism 5.0 (or Dotmatics).
Background: Reporter assays use an easily measured gene product as a stand-in for the process of interest.

The subject of data set [5] is primary human mesenchymal stem cells (hMSCs). Briefly: Chondrogenesis induction in hMSCs (nodule count, relative to TGF-β3). Type of data set: cell-based. The settings on record: 6 days; for Conc (nM) of 50% TGF-β3 activity / Max. Activity as % TGF-β3 activity: TGF-β3 10 ng/mL positive control; for Conc (nM) of Max. activity: chondrogenic nodules.
Text: as §1
Human Mesenchymal Stem Cell Culture: Primary human mesenchymal stem cells (hMSCs) were purchased from Lonza (Walkersville, Md.) and expanded in Mesenchymal Stem Cell Growth Media (Lonza). Cells between passage 3 and 6 were used for the experiments.
Number of nodules in each well was normalized to the average of 3 DMSO treated wells on the same plate using Excel (Microsoft Inc.). The normalized averages (fold change over DMSO) of 3 replicate wells for each compound concentration were calculated. Due to solubility limitations of some of the compounds, curve fitting was incomplete leading to inaccurate EC50 determinations.
Using TGF-β3 as a positive control, the concentration of representative compounds required to induce equivalent levels of chondrogenesis is reported. In addition, the maximum activity of each compound and the respective dose that each compound reached maximum chondrogenesis activity is reported.

As a reminder, the EC50 is the midpoint of the concentration-response curve. In general, IC50 refers to the concentration that inhibits the measured activity by half. A word on the inhibition: it is the relative decrease from the control value, in per cent. On to `O=C1CCc2cccc(c2)-c2cncc(c2)NC(=O)c2n[nH]c3ccc(cc23)-c2cncc(c2)CN1` [Compound 97, 2^1H-4,10-diaza-2(5,3)-indazola-1,5(3,5)-dipyridina-6(1,3)-benzenacycloundecaphane-3,9-dione], for which the EC50 in data set [1] is 0.069 µM; in data set [4], above 10 µM. The molecule also yielded a ring closure, isolated yield in data set [2] of 20.8%. In addition, the IC50 in data set [3] came to 0.009 µM. Moreover, the inhibition at 10 µM in data set [4] (SW480, read-out: percent inhibition at 10 μM) was 22.2%.

Take `CN1Cc2cncc(c2)-c2ccc3[nH]nc(c3c2)-c2nc3c(cccc3[nH]2)-c2cccc(c2)C1` [Compound 22, (Z)-6-Methyl-2^1H,3^1H-6-aza-2(5,3),3(2,4)-diindazola-1(3,5)-pyridina-4(1,3)-benzenacycloheptaphane]: in data set [5], the “Conc (nM) of 50% TGF-β3 activity” value was found to be 50 nM, the “Max. Activity as % TGF-β3 activity” value worked out at 440% and the “Conc (nM) of Max. activity” value is recorded as 600 nM. Besides, in data set [1], the EC50 came out at 0.796 µM. Further, the IC50 in data set [3] was 0.068 µM. Besides, a half-maximal response in data set [4] (EC50) required 0.01 µM.

In the case of `CN1CCCCN(C)c2nccc3[nH]c(nc23)-c2n[nH]c3ccc(cc23)-c2cncc(c2)C1` [Compound 51, (Z)-5,10-Dimethyl-1H,2^1H-5,10-diaza-1(2,4)-imidazo[4,5-c]pyridina-2(3,5)-indazola-3(3,5)-pyridinacyclodecaphane], in data set [5], the “Conc (nM) of 50% TGF-β3 activity” value is 5000 nM, the “Max. Activity as % TGF-β3 activity” value is 231% and the “Conc (nM) of Max. activity” value was found to be 5000 nM. In data set [1], this molecule returned an EC50 of 0.093 µM. Moreover, the IC50 in data set [3] is 0.002 µM. In data set [4], the EC50 worked out at 0.577 µM.

Source of the values: patent US10759799B2, “Indazole containing macrocycles and therapeutic uses thereof” (Samumed, LLC, priority 2018, dated 2020).
